Experimental data: patent publication US20220323406A1, “METHODS AND COMPOSITIONS FOR DIFFERENTIATING STEM CELLS” (Massachusetts Institute of Technology, priority 2019, published 2022)

Experiments:
[1] = system: ENR+CD organoids (ISC to Paneth cell differentiation); test: Primary screen: basal (non-stimulated) lysozyme secretion LYZ.NS, 2.5-D 384-well ENR+CD organoid differentiation; type: cell-based, mouse
Excerpt: (§1) High-throughput screening.

[2] = system: ENR+CD organoids; test: Primary screen: ATP (CellTiter-Glo 3D, CTG) cell number/viability, 2.5-D 384-well ENR+CD organoids; settings: primary screen; for Z.CTG: standard z score;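 as to all read-outs here: compounds given at plating and again on day 3 over a 6-day differentiation from ENR+CV stem-cell-enriched precursors, ATP measured on day 6, plate median as control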
[3] = system: ENR+CD organoids (ISC to Paneth cell differentiation); test: Primary screen: CCh-stimulated lysozyme secretion LYZ.S, 2.5-D 384-well ENR+CD organoid differentiation; type: cell-based, mouse; settings: primary screen
Excerpt: as §1

[4] = primary screen, dose 0.08 uM, standard z score
[5] = primary screen, dose 0.40 uM, standard z score
[6] = primary screen, dose 2.00 uM, standard z score
[7] = primary screen, dose 10.00 uM, standard z score
[8] = dose 0.08 uM, FC relative to plate median
[9] = dose 0.40 uM, FC relative to plate median
[10] = dose 2.00 uM, FC relative to plate median
[11] = dose 10.00 uM, FC relative to plate median
[12] = dose 0.08 uM, FC vs plate median
[13] = dose 0.40 uM, FC vs plate median
[14] = dose 2.00 uM, FC vs plate median
[15] = dose 10.00 uM, FC vs plate median

SMILES	Dose.FC.LYZ.NS ([1]; primary screen, dose 0.08 uM)	Z.LYZ.NS (standard z score) ([1]; primary screen, dose 0.08 uM)	Dose.FC.LYZ.NS ([1]; primary screen, dose 0.40 uM)	Z.LYZ.NS (standard z score) ([1]; primary screen, dose 0.40 uM)	Dose.FC.LYZ.NS ([1]; primary screen, dose 2.00 uM)	Z.LYZ.NS (standard z score) ([1]; primary screen, dose 2.00 uM)	Dose.FC.LYZ.NS ([1]; primary screen, dose 10.00 uM)	Z.LYZ.NS (standard z score) ([1]; primary screen, dose 10.00 uM)	Dose.FC.CTG ([2]; dose 0.08 uM)	Dose.FC.CTG ([2]; dose 0.40 uM)	Dose.FC.CTG ([2]; dose 2.00 uM)	Dose.FC.CTG ([2]; dose 10.00 uM)	Dose.FC.LYZ.S ([3]; dose 0.08 uM)	Dose.FC.LYZ.S ([3]; dose 0.40 uM)	Dose.FC.LYZ.S ([3]; dose 2.00 uM)	Dose.FC.LYZ.S ([3]; dose 10.00 uM)	Z.LYZ.NS [1, 4]	Z.LYZ.NS [1, 5]	Z.LYZ.NS [1, 6]	Z.LYZ.NS [1, 7]	further results
CCC(COC(=O)c1cc(OC)c(OC)c(OC)c1)(c1ccccc1)N(C)C (stereo not shown) [Trimebutine]	−0.014 log2 fold change	−0.121	−0.019 log2 fold change	−0.166	−0.202 log2 fold change	−1.763	−0.214 log2 fold change	−1.863	0.007 log2 fold change	−0.202 log2 fold change	−1.008 log2 fold change	−1.066 log2 fold change	0.000 log2 fold change	0.002 log2 fold change	−0.277 log2 fold change	−0.332 log2 fold change	–	–	–	–	–
c1ccc(CNc2nc(NCc3ccccc3)c3ccccc3n2)cc1 [DBeQ]	0.097 log2 fold change	–	0.064 log2 fold change	–	−0.048 log2 fold change	–	−0.296 log2 fold change	–	0.119 log2 fold change	−0.013 log2 fold change	0.004 log2 fold change	−1.133 log2 fold change	0.045 log2 fold change	0.210 log2 fold change	−0.103 log2 fold change	−0.423 log2 fold change	–	–	–	–	Z.LYZ.NS ([1]; primary screen, standard z score, dose 0.08 uM): 0.844; Z.LYZ.NS ([1]; primary screen, standard z score, dose 0.40 uM): 0.558; Z.LYZ.NS ([1]; primary screen, standard z score, dose 2.00 uM): −0.414; Z.LYZ.NS ([1]; primary screen, standard z score, dose 10.00 uM): −2.577; Z.CTG ([2]; dose 0.08 uM): 0.285; Z.CTG ([2]; dose 0.40 uM): −0.031; Z.CTG ([2]; dose 2.00 uM): 0.010; Z.CTG ([2]; dose 10.00 uM): −2.706
CN1CCN(c2nc(C3=C(c4c[nH]c5ccccc45)C(=O)NC3=O)c3ccccc3n2)CC1 [Sotrastaurin]	–	–	–	–	–	–	–	–	–	–	–	–	–	–	–	–	1.678	−0.567	0.125	−1.101	Dose.FC.LYZ.NS ([1]; primary screen, dose 0.08 uM, FC relative to plate median): 0.193 log2 fold change; Dose.FC.LYZ.NS ([1]; primary screen, dose 0.40 uM, FC relative to plate median): −0.065 log2 fold change; Dose.FC.LYZ.NS ([1]; primary screen, dose 2.00 uM, FC relative to plate median): 0.014 log2 fold change; Dose.FC.LYZ.NS ([1]; primary screen, dose 10.00 uM, FC relative to plate median): −0.126 log2 fold change; Dose.FC.CTG [2, 8]: 0.010 log2 fold change; Dose.FC.CTG [2, 9]: −0.120 log2 fold change; Dose.FC.CTG [2, 10]: −0.272 log2 fold change; Dose.FC.CTG [2, 11]: −0.242 log2 fold change; Dose.FC.LYZ.S [3, 8]: 0.097 log2 fold change; Dose.FC.LYZ.S [3, 9]: −0.043 log2 fold change; Dose.FC.LYZ.S [3, 10]: −0.085 log2 fold change; Dose.FC.LYZ.S [3, 11]: −0.164 log2 fold change
CC1(C)CCC(c2ccc(Cl)cc2)=C(CN2CCN(c3ccc(C(=O)NS(=O)(=O)c4ccc(N[C@H](CCN5CCOCC5)CSc5ccccc5)c(S(=O)(=O)C(F)(F)F)c4)cc3)CC2)C1 [ABT-263 (Navitoclax)]	0.012 log2 fold change	0.104	0.007 log2 fold change	0.062	−0.143 log2 fold change	−1.248	−0.259 log2 fold change	−2.259	−0.212 log2 fold change	−0.264 log2 fold change	−0.368 log2 fold change	−0.962 log2 fold change	−0.010 log2 fold change	−0.020 log2 fold change	−0.205 log2 fold change	−0.400 log2 fold change	–	–	–	–	Z.CTG (standard z score) ([2]; dose 0.08 uM): −0.507; Z.CTG (standard z score) ([2]; dose 0.40 uM): −0.631; Z.CTG (standard z score) ([2]; dose 2.00 uM): −0.878; Z.CTG (standard z score) ([2]; dose 10.00 uM): −2.298
Cc1ccccc1C(=O)Nc1ccc(C(=O)N2CCCC(N(C)C)c3ccccc32)cc1 (stereo not shown) [Mozavaptan]	–	–	–	–	–	–	–	–	–	–	–	–	–	–	–	–	0.584	−0.233	0.294	−1.752	Dose.FC.LYZ.NS ([1]; primary screen; dose 0.08 uM; FC vs plate median): 0.067 log2 fold change; Dose.FC.LYZ.NS ([1]; primary screen; dose 0.40 uM; FC vs plate median): −0.027 log2 fold change; Dose.FC.LYZ.NS ([1]; primary screen; dose 2.00 uM; FC vs plate median): 0.034 log2 fold change; Dose.FC.LYZ.NS ([1]; primary screen; dose 10.00 uM; FC vs plate median): −0.201 log2 fold change; Dose.FC.CTG [2, 12]: 0.320 log2 fold change; Dose.FC.CTG [2, 13]: 0.235 log2 fold change; Dose.FC.CTG [2, 14]: 0.108 log2 fold change; Dose.FC.CTG [2, 15]: −0.336 log2 fold change; Dose.FC.LYZ.S [3, 12]: 0.086 log2 fold change; Dose.FC.LYZ.S [3, 13]: 0.165 log2 fold change; Dose.FC.LYZ.S [3, 14]: 0.106 log2 fold change; Dose.FC.LYZ.S [3, 15]: −0.270 log2 fold change
